target: T1, p53 Y220C (Homo sapiens, UniProt P04637, Y220C); assay: In vitro DNA binding activity assay (HTRF / TR-FRET): stabilization of p53 Y220C and increase of its DNA binding activity; assay type: biochemical; conditions: recombinant His-tagged p53 Y220C DNA binding domain (aa 94-312), biotin-labeled consensus DNA, incubated at 27° C. or 29° C. for 60 min
T1 construct: The recombinant protein was a truncation mutant containing only amino acids 94-312 of p53; made in house; host or cells: E. coli
T1 sequence (P04637 94-312, change not shown): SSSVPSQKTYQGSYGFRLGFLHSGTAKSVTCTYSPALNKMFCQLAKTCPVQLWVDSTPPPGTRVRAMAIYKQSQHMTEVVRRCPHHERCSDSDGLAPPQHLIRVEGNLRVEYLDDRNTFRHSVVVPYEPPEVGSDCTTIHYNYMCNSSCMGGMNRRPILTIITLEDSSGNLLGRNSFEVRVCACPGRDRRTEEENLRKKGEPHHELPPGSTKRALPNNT
Outline: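 Compound effect on DNA binding of recombinant His-p53 Y220C (E. coli) to biotin-labeled consensus DNA, expressed as SC150, the concentration giving 50% increase versus untreated. Serial 3-fold DMSO dilutions of 4.5 mM stocks; room-temperature steps of 15 then 20 min.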

Structure (SMILES) | SC150 (concentration of the compound required to increase the DNA binding activity by 50%)
CNC(=O)c1ccc(NCC#Cc2cc3c(N[C@H]4CC[C@H](N5CCOCC5)CC4)cccc3n2CC(F)(F)F)c(OC)c1 [Compound 172A, 3-methoxy-N-methyl-4-{[3-(4-{[(1R,4R)-4-(morpholin-4-yl)cyclohexyl]amino}-1-(2,2,2-trifluoroethyl)-1H-indol-2-yl)prop-2-yn-1-yl]amino}benzamide] | + (+ = 0 μM ≤ SC150 < 0.05 μM)
COc1cc(S(=O)(=O)NC(C)=O)ccc1NCC#Cc1cc2c(N[C@H]3CC[C@@H](N(C)C)CC3)cccc2n1CC(F)(F)F [Compound 84A, N-(3-methoxy-4-{[3-(4-{[(1S,4S)-4-(dimethylamino)cyclohexyl]amino}-1-(2,2,2-trifluoroethyl)-1H-indol-2-yl)prop-2-yn-1-yl]amino}benzenesulfonyl)acetamide] | ++ (++ = 0.05 μM ≤ SC150 < 0.1 μM)
COc1cc(S(N)(=O)=O)ccc1NCC#Cc1cc2c(N[C@H]3CC[C@@H](N4CC5(CCOCC5)C4)CC3)cccc2n1CC(F)(F)F [Compound 298A, 3-methoxy-4-{[3-(4-{[(1S,4S)-4-{7-oxa-2-azaspiro[3.5]nonan-2-yl}cyclohexyl]amino}-1-(2,2,2-trifluoroethyl)-1H-indol-2-yl)prop-2-yn-1-yl]amino}benzene-1-sulfonamide] | + (+ = 0 μM ≤ SC150 < 0.05 μM)
CNC(=O)c1ccc(NCC#Cc2cc3c(N[C@H]4CC[C@H](N5CCOCC5)CC4)cccc3n2CC#N)c(OC)c1 [Compound 177A, 4-({3-[1-(cyanomethyl)-4-{[(1R,4R)-4-(morpholin-4-yl)cyclohexyl]amino}-1H-indol-2-yl]prop-2-yn-1-yl}amino)-3-methoxy-N-methyl-benzamide] | + (+ = 0 μM ≤ SC150 < 0.05 μM)
COc1cc(S(=O)(=O)N(CCO)CCO)ccc1NCC#Cc1cc2c(NC3CCN(C)CC3)cccc2n1CC(F)(F)F [Compound 483A, N,N-bis(2-hydroxyethyl)-3-methoxy-4-[(3-{4-[(1-methylpiperidin-4-yl)amino]-1-(2,2,2-trifluoroethyl)-1H-indol-2-yl}prop-2-yn-1-yl)amino]benzene-1-sulfonamide] | + (+ = 0 μM ≤ SC150 < 0.05 μM)
COCC(O)CN1CCC(Nc2cccc3c2cc(C#CCNc2ccc(S(C)(=O)=O)cc2)n3CC(F)(F)F)C1 (stereo not drawn) [Compound 457A, l-{3-[(2-{3-[(4-methanesulfonylphenyl)amino]prop-1-yn-1-yl}-1-(2,2,2-trifluoroethyl)-1H-indol-4-yl)amino]pyrrolidin-1-yl}-3-methoxypropan-2-ol] | ++ (++ = 0.05 μM ≤ SC150 < 0.1 μM)
COc1cc(C(=O)NC2CCOCC2)ccc1NCC#Cc1cc2c(NC3CCN(C)CC3)cccc2n1CC(F)(F)F [Compound 500A, 3-methoxy-4-[(3-{4-[(1-methylpiperidin-4-yl)amino]-1-(2,2,2-trifluoroethyl)-1H-indol-2-yl}prop-2-yn-1-yl)amino]-N-(oxan-4-yl)benzamide] | + (+ = 0 μM ≤ SC150 < 0.05 μM)
COc1cc(S(C)(=O)=O)ccc1NCC#Cc1cc2c(NC3CCC(N)CC3F)cccc2n1CC(F)(F)F (stereo not drawn) [Compound 37A] | + (+ = 0 μM ≤ SC150 < 0.05 μM)
COCC(O)CN1CCC(Nc2cccc3c2cc(C#CCNC(=O)c2ccccc2)n3CC(F)(F)F)C1 (stereo not drawn) [Compound 456A, N-[3-(4-{[1-(2-hydroxy-3-methoxypropyl)pyrrolidin-3-yl]amino}-1-(2,2,2-trifluoroethyl)-1H-indol-2-yl)prop-2-yn-1-yl]benzamide] | ++++ (++++ = 0.2 μM ≤ SC150 < 1 μM)

Further lines, results first:

SC150 (concentration of the compound required to increase the DNA binding activity by 50%) | Structure (SMILES)
+ (+ = 0 μM ≤ SC150 < 0.05 μM) | COc1cc(S(C)(=O)=O)ccc1NCC#Cc1cc2c(NC3CCOCC3)cc(F)cc2n1CC(F)(F)F [Compound 997A, 6-fluoro-2-{3-[(4-methanesulfonyl-2-methoxyphenyl)amino]prop-1-yn-1-yl}-N-(oxan-4-yl)-1-(2,2,2-trifluoroethyl)-1H-indol-4-amine]
+ (+ = 0 μM ≤ SC150 < 0.05 μM) | COc1cc(C(C)(C)C#N)ncc1NCC#Cc1cc2c(NC3CCN(CC(O)CO)CC3)cccc2n1CC(F)(F)F (stereo not drawn) [Compound 554A, 2-(5-{[3-(4-{[1-(2,3-dihydroxypropyl)piperidin-4-yl]amino}-1-(2,2,2-trifluoroethyl)-1H-indol-2-yl)prop-2-yn-1-yl]amino}-4-methoxypyridin-2-yl)-2-methylpropanenitrile]
+ (+ = 0 μM ≤ SC150 < 0.05 μM) | CNC(=O)c1ccc(NCC#Cc2cc3c(N[C@H]4CCNC[C@H]4F)cccc3n2CC(F)(F)F)c(OC)c1 [Compound 851A]
+ (+ = 0 μM ≤ SC150 < 0.05 μM) | COc1cc(S(C)(=O)=O)ccc1NCC#Cc1cc2c(N[C@H]3CCN(C(C)C)C[C@H]3F)cccc2n1CC(F)(F)F [Compound 803A]
++ (++ = 0.05 μM ≤ SC150 < 0.1 μM) | COc1cc(S(C)(=O)=O)ccc1NCC#Cc1cc2c(N[C@H]3CCOC[C@@H]3OC)cccc2n1CC(F)(F)F [Compound 1023A, 2-(3-((2-methoxy-4-(methylsulfonyl)phenyl)amino)prop-1-yn-1-yl)-N-((3R,4S)-3-methoxytetrahydro-2H-pyran-4-yl)-1-(2,2,2-trifluoroethyl)-1H-indol-4-amine]
+ (+ = 0 μM ≤ SC150 < 0.05 μM) | COc1cc(C(=O)N(C)C)ncc1NCC#Cc1cc2c(N[C@@H]3CCN(C)C[C@@H]3F)cccc2n1CC(F)(F)F [Compound 1064A, 5-{[3-(4-{[(3S,4R)-3-fluoro-1-methylpiperidin-4-yl]amino}-1-(2,2,2-trifluoroethyl)-1H-indol-2-yl)prop-2-yn-1-yl]amino}-4-methoxy-N,N-dimethylpyridine-2-carboxamide]
+ (+ = 0 μM ≤ SC150 < 0.05 μM) | COc1cc(C(=O)NCC(COC(=O)C(C)C)OC(=O)C(C)C)ccc1NCC#Cc1cc2c(N[C@@H]3CCN(C)C[C@@H]3F)cccc2n1CC(F)(F)F (stereo partly drawn) [Compound 967A, 1-[(4-{[3-(4-{[(3S,4R)-3-fluoro-1-methylpiperidin-4-yl]amino}-1-(2,2,2-trifluoroethyl)-1H-indol-2-yl)prop-2-yn-1-yl]amino}-3-methoxyphenyl)formamido]-3-[(2-methylpropanoyl)oxy]propan-2-yl 2-methylpropanoate]
++ (++ = 0.05 μM ≤ SC150 < 0.1 μM) | COc1cc(C(=O)O)ccc1NCC#Cc1cc2c(N[C@H]3CCN(C)C[C@@H]3F)cccc2n1CC(F)(F)F [Compound 789A, 4-{[3-(4-{[(3S,4S)-3-fluoro-1-methylpiperidin-4-yl]amino}-1-(2,2,2-trifluoroethyl)-1H-indol-2-yl)prop-2-yn-1-yl]amino}-3-methoxybenzoic acid]
+ (+ = 0 μM ≤ SC150 < 0.05 μM) | CCN1CCC(Nc2cccc3c2cc(C#CCNc2ccc(S(C)(=O)=O)cc2OCC#N)n3CC(F)(F)F)CC1 [Compound 536A]
